Assay results published in PMC7038240 (Antimicrobial Agents and Chemotherapy, 2020).
Where two headings read alike, the source gives them in different places.

Tests used:
Type in all cases: cell-based
[1] = system: K. pneumoniae; assay: microbe, parasite or virus in culture; settings: Klebsiella pneumoniae, read-out: MIC
[2] = system: P. aeruginosa; assay: microbe, parasite or virus in culture; settings: Pseudomonas aeruginosa, read-out: MIC
[3] = system: S. marcescens; assay: microbe, parasite or virus in culture; settings: Serratia marcescens
[4] = system: S. paratyphi; assay: microbe, parasite or virus in culture; settings: Salmonella enterica, strain 527, AmpC/TEM-1
[5] = system: S. typhi; assay: microbe, parasite or virus in culture; settings: Salmonella enterica, strain 26A, AmpC/TEM-1
[6] = system: M. morgannii; assay: organism not typed; settings: strain 769909; OXA-48
Source text: The antibacterial activity of cefepime-taniborbactam was compared to that of ceftazidime-avibactam, ceftolozane-tazobactam, and cefepime-tazobactam against a diverse panel of Enterobacterales and P. aeruginosa clinical isolates with defined β-lactamase subtypes (see Table S1 in the supplemental material). IMP-producing strains were excluded, as none of the BLI-protected cephalosporins inhibited IMP sufficiently to provide a clinically relevant rescue of the partner β-lactam, a characteristic also shared by approved BLI-protected carbapenems (meropenem-vaborbactam and imipenem-relebactam). […] The antibacterial activity of the cephalosporins alone was included to ascertain the level of potentiation by the partnered BLI. BLIs were tested at a fixed concentration of 4 μg/ml in all combinations except cefepime-tazobactam, where tazobactam was fixed at a concentration of 8 μg/ml ([38]). The collection comprised 143 clinical isolates collected from 2005 and 2018.
The in vitro antibacterial activity of the β-lactams alone or in combination with the BLIs was determined in cation-adjusted Mueller-Hinton broth (CAMHB) microdilution assays according to CLSI recommendations ([51]). […]. The inocula for the broth microdilution assays were prepared by the broth culture method ([51]). […]

Cn1c(N)c(NC(=O)NCCN)c[n+]1CC1=C(C(=O)O)N2C(=O)[C@@H](NC(=O)/C(=N\OC(C)(C)C(=O)[O-])c3nsc(N)n3)[C@H]2SC1 [TOL]
MIC ([1]; strain CDC-0049, NDM): ≥ 256 µg/mL | MIC ([1]; strain CDC-0117, KPC-3): 128 µg/mL | MIC ([1]; strain CDC-0125, KPC-3): 128 µg/mL | MIC ([1]; strain CDC-0139, NDM-1): ≥ 256 µg/mL | MIC ([1]; strain CDC-0145, NDM): ≥ 256 µg/mL | MIC ([1]; strain CDC-0148, NDM): ≥ 256 µg/mL | MIC ([1]; strain CDC-0152, NDM): ≥ 256 µg/mL | MIC ([1]; strain DOV, OXA-48): 128 µg/mL | MIC ([1]; strain ESBL8 #1, TEM-1/SHV-12): 32 µg/mL | MIC ([1]; strain ESBL 10, SHV-12/TEM-1): 32 µg/mL | MIC ([1]; strain KIRK, OXA-162): 128 µg/mL | MIC ([1]; strain KP 3, SHV-1/TEM-1): ≥ 256 µg/mL | MIC ([1]; strain KPN 508, SHV-7/TEM-1): 32 µg/mL | MIC ([1]; strain SI-C05, OXA-48): ≥ 256 µg/mL | MIC ([1]; strain SI-F100, SHV-5/TEM-1/CMY-2): 16 µg/mL | MIC ([1]; strain SI-KP NO30, TEM-26b/SHV-60/SHV-26): 64 µg/mL | MIC ([2]; ATCC27853, strain ATCC 27853, W.T.): 1 µg/mL | MIC ([2]; strain 10.257, PDC-50): 16 µg/mL | MIC ([2]; strain 11.516, PDC-79): 64 µg/mL | MIC ([2]; strain 11.698, PDC-87): 32 µg/mL | MIC ([2]; strain 11.813, PDC-91): 8 µg/mL | MIC ([2]; strain 13.1716, PDC-74): 128 µg/mL | MIC ([2]; strain 13.1717, PDC-74): 64 µg/mL | MIC ([2]; strain 13.1737, PDC-80): 128 µg/mL | MIC ([2]; strain 13.1755, PDC-86): 128 µg/mL | MIC ([2]; strain 13.1760, PDC-77): 32 µg/mL | MIC ([2]; strain 13.1775, PDC-87): 16 µg/mL | MIC ([2]; strain 247.3D, VIM-2): ≥ 256 µg/mL | MIC ([2]; strain 1129, PDC): 1 µg/mL | MIC ([2]; strain 3615, PDC/TEM-1): 4 µg/mL | MIC ([2]; strain 5671, VIM-1): 64 µg/mL | MIC ([2]; strain 8273, PDC/TEM-1): 1 µg/mL | MIC ([2]; strain 164951, W.T.): 1 µg/mL | MIC ([2]; strain 377860, W.T.): 1 µg/mL | MIC ([2]; strain 384743, PDC/TEM-1): 16 µg/mL | MIC ([2]; strain 1013996, KPC-2): 16 µg/mL | MIC ([2]; strain 1071703, GES-6): 32 µg/mL | MIC ([2]; strain 1113755, GES-5): ≥ 256 µg/mL | MIC ([2]; strain 1138223, GES-19): ≥ 256 µg/mL | MIC ([2]; strain 1138337, GES-19): ≥ 256 µg/mL | MIC ([2]; strain 1258509, GES-6): 64 µg/mL | MIC ([2]; strain 1275655, GES-20): ≥ 256 µg/mL | MIC ([2]; strain 1300089, GES-19): ≥ 256 µg/mL | MIC ([2]; strain 1313666, KPC-2): 32 µg/mL | MIC ([2]; strain CDC-0090, KPC): 32 µg/mL | MIC ([2]; strain PA2, W.T.): 2 µg/mL | MIC ([2]; strain PAA1-9G1, GES-5): ≥ 256 µg/mL | MIC ([2]; strain PAA1-9G2, GES-5): ≥ 256 µg/mL | MIC ([2]; strain PS-12, VIM-2): ≥ 256 µg/mL | MIC ([2]; strain PS-32, VIM-2): 128 µg/mL | MIC ([2]; strain Paeβ-04, 100-fold ↑ PDC-2/30% OprD/5.6x ↑ABM): 2 µg/mL | MIC ([2]; strain Paeβ-10, 67-fold ↑ PDC-2/0.1% OprD/5.7x↑ABM): 2 µg/mL | MIC ([2]; strain Paeβ-15, 310-fold ↑ PDC-2/10% OprD/4.4x↑XYM): 4 µg/mL | MIC ([2]; strain Paeβ-17, 62-fold ↑PDC-3/30% OprD/10.2x and 9.9x ↑XYM and CDJ): 2 µg/mL | MIC ([2]; strain Paeβ-18, 600-fold ↑ PDC-3/<0.01% OprD/3.9x and 5.6x ↑ABM and XYM): 16 µg/mL | MIC ([2]; strain Paeβ-21, 200-fold ↑ PDC-4/10% OprD/13.5x ↑XYM): 2 µg/mL | MIC ([2]; strain Ps296, VIM-2): ≥ 256 µg/mL | MIC ([3]; strain 134434, AmpC/SHV-12/TEM-1): 64 µg/mL | MIC ([3]; strain 192476, AmpC/TEM-1/SHV-5): 64 µg/mL | MIC ([3]; strain 192478, AmpC/SHV-12/TEM-1): 64 µg/mL | MIC ([3]; strain 218073, AmpC/SHV-7/TEM-1): 64 µg/mL | MIC [4]: 32 µg/mL | MIC [5]: 16 µg/mL | MIC [6]: 8 µg/mL
